We go through three compounds from patent US10760087B2, “Compositions, methods, and plant genes for the improved production of fermentable sugars for biofuel production” (priority 2012, dated 2020).

Format in all cases: in vivo
The test system of test [1] is Arabidopsis wild-type and CesA1/CesA3/CesA6 mutant alleles. Briefly: Root length of Arabidopsis wild-type and CESA mutant lines on cellulose biosynthetic inhibitors (CBI resistance). The note with it: Arabidopsis thaliana. The procedure:
Further genetic screens aimed at identifying resistance to cellulose biosynthetic inhibitors (CBIs) were also conducted. The aim of conducting resistance screens can be to identify potential inhibitor targets. In the case of some CBIs, like isoxaben, resistance screens have been carried out using high concentrations of the inhibitor with the aim of identifying the target protein. Indeed, high resistance to isoxaben is only possible if certain CELLULOSE SYNTHASE (CESA) genes are altered by mutation. An unforeseen consequence of some of the resistance alleles has been to reduce overall cellulose crystallinity, which ultimately leads to overall improved saccharification of starting cell wall material. With this information as a starting point, the inventors sought to identify novel CESA alleles by conducting additional resistance screens, but utilizing much lower CBI concentrations than in the original screens.
EMS mutagenized plants (M2) were screened on 20 nM of two different CBIs, isoxaben or flupoxam. […] In total, 2 million M2 seeds were screened and 12 new CESA alleles were isolated, 3 in CESA1, 8 in CESA3 and 1 in CESA6. All of the new mutant alleles led to single amino acid substitutions, which could not have been predicted a priori.

The test system of test [2] is wild type Arabidopsis seedlings. Briefly: Sugar release by 0.2 M H2SO4 acid hydrolysis of NPA-treated Arabidopsis seedlings. To be noted: wild type (Col-0) 28 day-old seedlings on MS media with 1 or 5 μM NPA. From the text: FIGS. 4A-4D illustrate the analysis of pin-shaped inflorescence mutants and NPA treatment, resulting in increased saccharification in Arabidopsis and maize. […] (Results are averages ±s.d. (n=4). *, P<0.001 and **, P<0.005 using Student's t-test; all experiments were repeated two times with similar results.)
(§1) The connection between auxin transport and increased sugar release was further probed using a specific inhibitor of auxin transport N-1-naphthylphthalamic acid (NPA). […] More importantly, the ability to chemically perturb auxin transport allowed the expansion of the analysis to Zea mays (maize). […] Moreover, it appears that genes and processes identified using Arabidopsis can be transferred to maize and potentially other monocot species dedicated to biofuel production.
The M2 generation of EMS-mutagenized Arabidopsis (Col-0) seeds were chilled for 4 days and sowed onto 0.5× MS plates placed vertically under continuous light conditions at room temperature. […] The samples were incubated at 100° C. for 5 minutes, cooled and the absorbance was read at 660 nm. Approximately 22,000 seedlings from 32 pools were screened from which 63 wall hydrolysis sensitive (whs) mutants were identified as having an absorbance reading greater than 2 standard deviations from wild type (FIG. 5). whs mutants were retested in the M3 generation.

For test [3], the system named is Zea mays (maize). Nature of the test: Sugar release by 0.2 M H2SO4 acid hydrolysis of NPA-treated maize. The note with it: two maize cultivars, 120 μM NPA for 2 weeks.
From the text: (Results are averages ±s.d. (n=6-9).)
as §1
Polar auxin transport inhibition was carried out as described by Wu & McSteen, 2007. The two maize cultivars, Syngenta hybrid N39-Q1 and Tuxedo Sweet Corn, were grown in a greenhouse at 24° C. with a 12 hour day/night cycle. The plants were grown four weeks before NPA treatment followed by a two week watering regime using 120 μM NPA (ChemService, West Chester, Pa., USA) or DMSO alone (solvent) applied every two days in a volume of 150 mL for each pot. Plants were fertilized once a week with 20-20-20 fertilizer. After 2 weeks of treatment, whole plants were collected and de-stained in chloroform:methanol (1:1 v/v). Acid hydrolysis was performed as described previously.

Read-outs that look alike come from different tables or passages of the source.

Regarding `NC(=O)c1nc(-c2ccccc2)n(-c2ccc(Cl)c(COCC(F)(F)C(F)(F)F)c2)n1` [Flupoxam, flupoxam], the IC50 was 500 nM in test [1] (read-out: Concentration at which root length is 50% of wt, allele fpx 1-1, Col-o, CesA3 S(1040)L); greater than 1000 nM in test [1] (read-out: Concentration at which root length is 50% of wt, allele fpx 1-2, Ler, CesA3 S(1037)F); 100 nM in test [1] (read-out: Concentration at which root length is 50% of wt, allele fpx 1-3, Ler, CesA3 S(983)F); greater than 1000 nM in test [1] (read-out: Concentration at which root length is 50% of wt, allele fpx2-1, Ler, CesA1 G(1013)R); 100 to 500 nM in test [1] (read-out: Concentration at which root length is 50% of wt, allele fpx 2-2, Ler, CesA1 P(1010)L); 1000 nM in test [1] (read-out: Concentration at which root length is 50% of wt, allele fpx 2-3, Ler, CesA1 G(1009)D).
Turning to `CCC(C)(CC)c1cc(NC(=O)c2c(OC)cccc2OC)on1` [Isoxaben, isoxaben], the IC50 in test [1] (read-out: Concentration at which root length is 50% of wt, allele ixr1-1 (published), Col-0, CesA3 G(998)D) was greater than 1000 nM; in test [1] (read-out: Concentration at which root length is 50% of wt, allele ixr1-2 (published), Col-0, CesA3 T(942)I), 500 nM; in test [1] (read-out: Concentration at which root length is 50% of wt, allele ixr1-3, Ler, CesA3 G(998)S) it was 100 nM; in test [1] (read-out: Concentration at which root length is 50% of wt, allele ixr1-4, Ler, CesA3 R(806)K) it was 50 nM; in test [1] (read-out: Concentration at which root length is 50% of wt, allele ixr1-5, Ler, CesA3 L(797)F), 10 nM; in test [1] (read-out: Concentration at which root length is 50% of wt, allele ixr1-6, Ler, CesA3 S(377)F) it was 50 nM. Also, the IC50 in test [1] (read-out: Concentration at which root length is 50% of wt, allele ixr1-7, Ler, CesA3 R(276)H) was determined as 50 nM; in test [1] (read-out: Concentration at which root length is 50% of wt, allele ixr 2-1 (published), Col-0, CesA6 R(1064)W), 50 nM; in test [1] (read-out: Concentration at which root length is 50% of wt, allele ixr 2-2, Ler, CesA6 S(1002)F), 10 nM.
For `O=C(O)c1ccccc1C(=O)Nc1cccc2ccccc12` [NPA, N-1-naphthylphthalamic acid], the “increase in the release of sugars relative to untreated plants” value in test [2] fell in the range of 1.5 to 2 fold. For the same compound, the “cell wall accessibility (sugar release)” value in test [3] is recorded as “significant increase in cell wall accessibility”.
